Key:
[1] = test system: type-X collagen; assay: Immunohistochemistry for type-X collagen in tibia growth plate; type: in vivo, mice
Method: Four weeks old mice (female, FVB) were injected with Dexa dissolved in saline (20 μg/mice) subcutaneously in the neck every day for four week. Whereas, HNG (S14G) dissolved in saline (1 μg/mice) was injected intra-peritoneally, 45 minutes prior to the Dexa injection. The vehicle group received saline only. The femur and tibia bones were dissected out and fixed in 4% formalin for 24 hrs, followed by decalcification in 10% EDTA and embedded in paraffin blocks. Five-micrometer-thick sections were prepared from these paraffin blocks. After one wash in dH2O, endogenous peroxidase activity was reduced by incubation in 3% hydrogen peroxide in methanol for 5 min at room temperature. The sections were additionally treated with 5 mg/ml hyaluronidase (Sigma-Aldrich, Inc, Steinheim, Germany) for 30 min at 37° C., then blocked in 3% horse serum and incubated overnight at +4° C. with anti-collagen type-X primary antibody (Quartett GmbH, Berlin, Germany; 1:30). Secondary anti-mouse biotinylated antibody (1:300) was purchased from DakoCytomation A/S (Glostrup, Denmark). Sections were washed in TBS, incubated with avidin-conjugated peroxidase (Vector Laboratories) for 60 min, and the resulting peroxidase activity was detected using a DAB Kit (Vector Laboratories). […] Minimum 4 measurements were taken from each sample and measured blindly. n=4-5/group, **p<0.01. […]

[2] = test system: medulloblastoma (D-283) xenograft; assay: Tumor volume in medulloblastoma xenograft in NMRI nude mice; type: in vivo, human; conditions: bortezomib + HNG i.p., until day 13
Method: Male NMRI nu/nu mice (B&K Scanbur, Sweden or Taconic, Denmark) were xenografted at the age of 4 weeks (BW 18-25 g). The mice were anesthetized with 2% fluothane (Zeneca Ltd, Macclesfield, UK) supplemented with 50% N2O in oxygen. Tumor cells (NB (SH-SY5Y; 20×10^6 cells/side) or MB (D-283; 10×10^6 cells/side) in 0.1 ml medium) were implanted s.c. in the hindlegs of the animal using a 23 G needle. Tumors were measured every other day with a digital caliper, starting when they were palpable. At a tumor volume of 0.1 ml or 0.15 ml the animals were randomized into groups (1. Vehicle without tumors; 2. Vehicle with tumors; 3. HNG (S14G; 1 μg/mice); 4. CT (bortezomib; 0.8 mg/kg or 1 mg/kg); 5. HNG (S14G) 1 μg/mice+CT (bortezomib; 0.8 mg/kg or 1 mg/kg), stratified by their bodyweight and treatment started. Treatment regime was the same as in clinical settings with 2 injections/week; 2 weeks treatment (see FIG. 1, Group 1). HNG (S14G) was injected 40 min before the CT (bortezomib) injection. Tumor volume was calculated by the formula 0.44×length×width×width (Wassberg, Pahlman et al. 1997). […] The animal weight and general appearance were recorded every day throughout the experiments. […] After fixation, femur and tibia were measured with digital calipers and decalcified in 5% EDTA and then paraffin embedded. […]

## S14G-HN (MAPRGFSCLLLLTGEIDLPVKRRA) [HNG (S14G)]
[1]; Dexa 20 μg/mice + HNG 1 μg/mice every day for four weeks, vs Dexa alone, p<0.01
  type-X collagen expression (height): significantly increased
[1]; HNG only, 1 μg/mice every day for four weeks
  type-X collagen expression (height): also increased
[2]
  interference with anti-cancer effect of bortezomib (tumor volume): does not interfere with the anti-cancer effect

Source: patent publication US20130053323A1, “METHODS AND USE RELATED TO HUMANIN AND HUMANIN-LIKE PEPTIDES” (priority 2009, published 2013)
